The target of one assay is T1, human A2A receptors (Homo sapiens, UniProt P29274).
T1 construct: expressed in transfected cells; host or cells: HEK293
Nature of the assay: Functional human A2A receptor activity, recombinant HEK293 cells, cAMP (HTRF). The class given is cell-based. Particulars: read-out: A2A (Category). The essentials: (§1)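 Adenosine receptor activity tracked via second-messenger cAMP; incubation 15 min, then HTRF detection of cellular cAMP.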
On the technique in general: In TR-FRET formats the signal depends on donor and acceptor labels being close together.

The next assay concerns the target T2, human A2B receptors (Homo sapiens, UniProt P29275).
T2 construct: expressed in transfected cells; host or cells: HEK293
T2 sequence (P29275 1-332): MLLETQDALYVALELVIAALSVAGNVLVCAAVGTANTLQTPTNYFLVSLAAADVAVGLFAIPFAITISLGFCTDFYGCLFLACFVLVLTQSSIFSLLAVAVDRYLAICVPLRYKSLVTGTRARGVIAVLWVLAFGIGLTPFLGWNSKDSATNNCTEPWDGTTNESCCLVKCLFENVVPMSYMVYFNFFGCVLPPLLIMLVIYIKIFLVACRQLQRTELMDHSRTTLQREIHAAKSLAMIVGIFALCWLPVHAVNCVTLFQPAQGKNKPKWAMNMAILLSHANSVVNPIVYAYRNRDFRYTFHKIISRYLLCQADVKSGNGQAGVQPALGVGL
Nature of the assay: Functional human A2B receptor activity, recombinant HEK293 cells, cAMP (HTRF). It counts as cell-based. Particulars: read-out: A2B (Category). The essentials: as §1

T1 sequence (P29274 whole entry): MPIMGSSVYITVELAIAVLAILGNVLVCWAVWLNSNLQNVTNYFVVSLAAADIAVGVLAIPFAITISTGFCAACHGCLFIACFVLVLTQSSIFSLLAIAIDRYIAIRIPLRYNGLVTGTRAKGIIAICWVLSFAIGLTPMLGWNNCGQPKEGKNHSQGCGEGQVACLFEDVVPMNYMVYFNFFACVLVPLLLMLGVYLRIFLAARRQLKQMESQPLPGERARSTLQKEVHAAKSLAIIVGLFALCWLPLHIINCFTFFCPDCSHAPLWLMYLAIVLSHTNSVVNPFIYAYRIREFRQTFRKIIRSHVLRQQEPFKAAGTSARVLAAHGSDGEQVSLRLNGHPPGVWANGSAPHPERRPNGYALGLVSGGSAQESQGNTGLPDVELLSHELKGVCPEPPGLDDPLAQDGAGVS

As for `[2H]C1([2H])CCOCCN1C(=O)c1cc2c(cn1)c(-c1cnc3c(F)cc(F)cn13)nn2CC(F)(F)F` [Compound 190, [3-(6,8-Difluoro-imidazo[1,2-a]pyridin-3-yl)-1-(2,2,2-trifluoro-ethyl)-1H-pyrazolo[4,3-c]pyridin-6-yl]-1,4-oxazepan-5,5-dideuterio-4-yl-methanone], the IC50 on human A2A receptors and at human A2B receptors was under 100 nM in each case.

`O=C(c1cc2c(cn1)c(-c1cnc3c(F)cc(F)cn13)nn2CC(F)(F)F)N1CCCCCO1` [Compound 191, [3-(6,8-Difluoro-imidazo[1,2-a]pyridin-3-yl)-1-(2,2,2-trifluoro-ethyl)-1H-pyrazolo[4,3-c]pyridin-6-yl]-[1,2]oxazepan-2-yl-methanone]: the values for the IC50 on human A2A receptors and at human A2B receptors were under 100 nM and under 1000 nM, respectively.

Turning to `O=C(c1cc2c(cn1)c(-c1cnc3c(F)cc(F)cn13)nn2CC(F)(F)F)N1CCOC2(CCC2)C1` [Compound 192, [3-(6,8-Difluoro-imidazo[1,2-a]pyridin-3-yl)-1-(2,2,2-trifluoro-ethyl)-1H-pyrazolo[4,3-c]pyridin-6-yl]-(5-oxa-8-aza-spiro[3.5]non-8-yl)-methanone], the IC50 at human A2A receptors was under 100 nM; at human A2B receptors, under 1000 nM.

Turning to `O=C(c1cc2c(cn1)c(-c1cnc3c(F)cc(F)cn13)nn2CC(F)(F)F)N1CCOCC(O)C1` (stereo not drawn) [Compound 193, [3-(6,8-Difluoro-imidazo[1,2-a]pyridin-3-yl)-1-(2,2,2-trifluoro-ethyl)-1H-pyrazolo[4,3-c]pyridin-6-yl]-(6-hydroxy-1,4-oxazepan-4-yl)-methanone], the IC50 at human A2A receptors is under 100 nM; on human A2B receptors it was under 1000 nM.

`CC(C)(C)OC(=O)N1CC2CC1CN2C(=O)c1cc2c(cn1)c(-c1cnc3c(F)cc(F)cn13)nn2CC(F)(F)F` (stereo not drawn) [Compound 194, 5-[3-(6,8-Difluoro-imidazo[1,2-a]pyridin-3-yl)-1-(2,2,2-trifluoro-ethyl)-1H-pyrazolo[4,3-c]pyridine-6-carbonyl]-2,5-diaza-bicyclo[2.2.1]heptane-2-carboxylic Acid Tert-Butyl Ester]: the IC50 at human A2A receptors and at human A2B receptors was under 100 nM in each case.

As to `CN(CCNC(=O)OC(C)(C)C)C(=O)c1cc2c(cn1)c(-c1cnc3c(F)cc(F)cn13)nn2CC(F)(F)F` [Compound 197, (2-{[3-(6,8-Difluoro-imidazo[1,2-a]pyridin-3-yl)-1-(2,2,2-trifluoro-ethyl)-1H-pyrazolo[4,3-c]pyridine-6-carbonyl]-methyl-amino}-ethyl)-carbamic Acid Tert-Butyl Ester], the results for the IC50 on human A2A receptors and at human A2B receptors were under 100 nM and under 1000 nM, respectively.

Consider `O=C(c1cc2c(cn1)c(-c1cnc3c(F)cc(F)cn13)nn2CC(F)(F)F)N1CC2COC(C2)C1` (stereo not drawn) [Compound 199, [3-(6,8-Difluoro-imidazo[1,2-a]pyridin-3-yl)-1-(2,2,2-trifluoro-ethyl)-1H-pyrazolo[4,3-c]pyridin-6-yl]-(6-oxa-3-aza-bicyclo[3.2.1]oct-3-yl)-methanone], for which the IC50 is under 100 nM at human A2A receptors and under 1000 nM on human A2B receptors.

As for `O=C1CN(C(=O)c2cc3c(cn2)c(-c2cnc4c(F)cc(F)cn24)nn3CC(F)(F)F)CCCN1` [Compound 201, 4-[3-(6,8-Difluoro-imidazo[1,2-a]pyridin-3-yl)-1-(2,2,2-trifluoro-ethyl)-1H-pyrazolo[4,3-c]pyridine-6-carbonyl]-1,4-diazepan-2-one], the IC50 is under 100 nM at human A2A receptors and under 1000 nM on human A2B receptors.

As for `O=C(c1cc2c(cn1)c(-c1cnc3c(F)cc(F)cn13)nn2CC(F)(F)F)N1CCC(O)C(F)(F)C1` (stereo not drawn) [Compound 203, (3,3-Difluoro-4-hydroxy-piperidin-1-yl)-[3-(6,8-difluoro-imidazo[1,2-a]pyridin-3-yl)-1-(2,2,2-trifluoro-ethyl)-1H-pyrazolo[4,3-c]pyridin-6-yl]-methanone], the IC50 on human A2A receptors is under 100 nM; at human A2B receptors, under 1000 nM.

For `CC(C)(C)OC(=O)NC1COCCN(C(=O)c2cc3c(cn2)c(-c2cnc4c(F)cc(F)cn24)nn3CC(F)(F)F)C1` (stereo not drawn) [Compound 204, {4-[3-(6,8-Difluoro-imidazo[1,2-a]pyridin-3-yl)-1-(2,2,2-trifluoro-ethyl)-1H-pyrazolo[4,3-c]pyridine-6-carbonyl]-1,4-oxazepan-6-yl}-carbamic Acid Tert-Butyl Ester], the IC50 is under 100 nM at human A2A receptors and under 1000 nM on human A2B receptors.

Regarding `O=C(c1cc2c(cn1)c(-c1cnc3c(F)cc(F)cn13)nn2CC(F)(F)F)N1CCOC2CC21` (stereo not drawn) [Compound 205, [3-(6,8-Difluoro-imidazo[1,2-a]pyridin-3-yl)-1-(2,2,2-trifluoro-ethyl)-1H-pyrazolo[4,3-c]pyridin-6-yl]-(2-oxa-5-aza-bicyclo[4.1.0]hept-5-yl)-methanone], the results for the IC50 on human A2A receptors and on human A2B receptors were under 100 nM and under 1000 nM, respectively.

Turning to `O=C(c1cc2c(cn1)c(-c1coc3ccccc13)nn2CC(F)(F)F)N1CCC(O)CC1` [Compound 207, [3-Benzofuran-3-yl-1-(2,2,2-trifluoro-ethyl)-1H-pyrazolo[4,3-c]pyridin-6-yl]-(4-hydroxy-piperidin-1-yl)-methanone], the IC50 on human A2A receptors and on human A2B receptors was under 100 nM throughout.

Consider `CC1(O)CCN(C(=O)c2cc3c(cn2)c(-c2coc4ccccc24)nn3CC(F)(F)F)CC1` [Compound 208, [3-Benzofuran-3-yl-1-(2,2,2-trifluoro-ethyl)-1H-pyrazolo[4,3-c]pyridin-6-yl]-(4-hydroxy-4-methyl-piperidin-1-yl)-methanone], for which the IC50 on human A2A receptors and at human A2B receptors was under 100 nM each time.

Take `O=C(c1cc2c(cn1)c(-c1coc3ccccc13)nn2CC(F)(F)F)N1[C@@H]2CC[C@H]1C[C@@H](O)C2` [Compound 209, [3-Benzofuran-3-yl-1-(2,2,2-trifluoro-ethyl)-1H-pyrazolo[4,3-c]pyridin-6-yl]-(3-endo-hydroxy-8-aza-bicyclo[3.2.1]oct-8-yl)-methanone]: the IC50 at human A2A receptors and on human A2B receptors was under 100 nM in each case.

Turning to `CCC1(O)C2CCC1CN(C(=O)c1cc3c(cn1)c(-c1coc4ccccc14)nn3CC(F)(F)F)C2` (stereo not drawn) [Compound 210, [3-Benzofuran-3-yl-1-(2,2,2-trifluoro-ethyl)-1H-pyrazolo[4,3-c]pyridin-6-yl]-(8-exo-ethyl-8-endo-hydroxy-3-aza-bicyclo[3.2.1]oct-3-yl)-methanone], the results for the IC50 on human A2A receptors and on human A2B receptors were under 100 nM and under 1000 nM, respectively.

On to `CC1(O)CC2CC1CN2C(=O)c1cc2c(cn1)c(-c1coc3ccccc13)nn2CC(F)(F)F` (stereo not drawn) [Compound 211, [3-Benzofuran-3-yl-1-(2,2,2-trifluoro-ethyl)-1H-pyrazolo[4,3-c]pyridin-6-yl]-(5-endo-hydroxy-5-exo-methyl-2-aza-bicyclo[2.2.1]hept-2-yl)-methanone], for which the IC50 was under 100 nM at human A2A receptors and under 1000 nM on human A2B receptors.

Consider `C[C@]1(O)[C@@H]2CC[C@H]1CN(C(=O)c1cc3c(cn1)c(-c1coc4ccccc14)nn3CC(F)(F)F)C2` [Compound 212, [3-Benzofuran-3-yl-1-(2,2,2-trifluoro-ethyl)-1H-pyrazolo[4,3-c]pyridin-6-yl]-(8-endo-hydroxy-8-exo-methyl-3-aza-bicyclo[3.2.1]oct-3-yl)-methanone], for which the IC50 is under 100 nM at human A2A receptors and under 1000 nM on human A2B receptors.

Take `C#CC1(O)C2CCC1CN(C(=O)c1cc3c(cn1)c(-c1coc4ccccc14)nn3CC(F)(F)F)C2` (stereo not drawn) [Compound 214]: the IC50 is under 100 nM at human A2A receptors and under 1000 nM on human A2B receptors.

Turning to `COCC1CCCN1C(=O)c1cc2c(cn1)c(-c1coc3ccccc13)nn2CC(F)(F)F` (stereo not drawn) [Compound 215, [3-Benzofuran-3-yl-1-(2,2,2-trifluoro-ethyl)-1H-pyrazolo[4,3-c]pyridin-6-yl]-(2-methoxymethyl-pyrrolidin-1-yl)-methanone], the IC50 was under 100 nM at human A2A receptors and under 1000 nM on human A2B receptors.

As for `O=C(c1cc2c(cn1)c(-c1coc3ccccc13)nn2CC(F)(F)F)N1CCC(F)CC1` [Compound 216, [3-Benzofuran-3-yl-1-(2,2,2-trifluoro-ethyl)-1H-pyrazolo[4,3-c]pyridin-6-yl]-(4-fluoro-piperidin-1-yl)-methanone], the IC50 at human A2A receptors was under 100 nM; at human A2B receptors, under 1000 nM.

For the compound `O=C(c1cc2c(cn1)c(-c1coc3ccccc13)nn2CC(F)(F)F)N1CCOCC(F)(F)C1` [Compound 217], the IC50 at human A2A receptors and on human A2B receptors was under 100 nM each time.

For the compound `O=C(c1cc2c(cn1)c(-c1coc3ccccc13)nn2CC(F)(F)F)N1CC2CCC(C1)C2O` (stereo not drawn) [Compound 218, [3-Benzofuran-3-yl-1-(2,2,2-trifluoro-ethyl)-1H-pyrazolo[4,3-c]pyridin-6-yl]-(8-endo-hydroxy-3-aza-bicyclo[3.2.1]oct-3-yl)-methanone], the IC50 on human A2A receptors and at human A2B receptors was under 100 nM throughout.

As for `CC1(C)CC(O)CCN1C(=O)c1cc2c(cn1)c(-c1coc3ccccc13)nn2CC(F)(F)F` (stereo not drawn) [Compound 219, [3-Benzofuran-3-yl-1-(2,2,2-trifluoro-ethyl)-1H-pyrazolo[4,3-c]pyridin-6-yl]-(4-hydroxy-2,2-dimethyl-piperidin-1-yl)-methanone], the IC50 on human A2A receptors is under 100 nM; at human A2B receptors it was under 1000 nM.

For `O=C(c1cc2c(cn1)c(-c1coc3ccccc13)nn2CC(F)F)N1C2CCC1CC(O)C2` (stereo not drawn) [Compound 220, [3-Benzofuran-3-yl-1-(2,2-difluoro-ethyl)-1H-pyrazolo[4,3-c]pyridin-6-yl]-(3-endo-hydroxy-8-exo-methyl-3-aza-bicyclo[3.2.1]oct-3-yl)-methanone], the IC50 is under 100 nM on human A2A receptors and under 1000 nM at human A2B receptors.

Values taken from patent US20210380606A1, “5-AZAINDAZOLE DERIVATIVES AS ADENOSINE RECEPTOR ANTAGONISTS” (Merck Patent GmbH, priority 2018, published 2021).
